Laboratory results as given in ChEMBL document CHEMBL1201862, “PubChem BioAssay data set” (2004).
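Cells were grown in 96-well plates and exposed to each compound for 48 hours at five concentrations; endpoints were interpolated linearly between bracketing concentrations, or set to the highest concentration if not reached. Abbreviation: GI50, concentration required for 50% inhibition of growth.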 The source made the active and inactive calls. Cut-off read from the data, not from the text of the source: active = GI50 up to about 1.1 µM and inactive = higher.

Columns and labels:
Assay in all cases: growth of human tumour cells (NCI), 48 h
LOX IMVI = tested on: LOX IMVI
CCRF-CEM = tested on: CCRF-CEM
UACC-257 = tested on: UACC-257
IGROV-1 = tested on: IGROV-1
SF-539 = tested on: SF-539
SNB-19 = tested on: SNB-19
UO-31 = tested on: UO-31
HCC 2998 = tested on: HCC 2998
MOLT-4 = tested on: MOLT-4
NCI-H23 = tested on: NCI-H23
NCI/ADR-RES = tested on: NCI/ADR-RES
SF-295 = tested on: SF-295
HCT-116 = tested on: HCT-116
NCI-H522 = tested on: NCI-H522
SK-MEL-5 = tested on: SK-MEL-5
HT-29 = tested on: HT-29
COLO 205 = tested on: COLO 205
HL-60 = tested on: HL-60
HOP-92 = tested on: HOP-92
U-251 = tested on: U-251
MDA-N = tested on: MDA-N
OVCAR-3 = tested on: OVCAR-3
HCT-15 = tested on: HCT-15
NCI-H460 = tested on: NCI-H460
NCI-H226 = tested on: NCI-H226
A549 = tested on: A549
Hs-578T = tested on: Hs-578T
SW-620 = tested on: SW-620
BT-549 = tested on: BT-549
OVCAR-5 = tested on: OVCAR-5
SF-268 = tested on: SF-268
K562 = tested on: K562
T47D = tested on: T47D
786-0 = tested on: 786-0
OVCAR-8 = tested on: OVCAR-8
SK-MEL-28 = tested on: SK-MEL-28
SK-OV-3 = tested on: SK-OV-3
OVCAR-4 = tested on: OVCAR-4
DU-145 = tested on: DU-145
CAKI-1 = tested on: CAKI-1
TK-10 = tested on: TK-10
RXF 393 = tested on: RXF 393
UACC-62 = tested on: UACC-62
SK-MEL-2 = tested on: SK-MEL-2
EKVX = tested on: EKVX
MCF7 = tested on: MCF7
KM12 = tested on: KM12
A498 = tested on: A498
SN12C = tested on: SN12C
MDA-MB-435 = tested on: MDA-MB-435
MDA-MB-231 = tested on: MDA-MB-231
Malme-3M = tested on: Malme-3M
ACHN = tested on: ACHN
PC-3 = tested on: PC-3
M14 = tested on: M14
SNB-75 = tested on: SNB-75
HOP-62 = tested on: HOP-62
RPMI-8226 = tested on: RPMI-8226

CCOS(C)(=O)=O [METHANESULFONIC ACID ETHYL ESTER]
GI50 (LOX IMVI): > 100 µM (inactive) | GI50 (CCRF-CEM): > 100 µM (inactive) | GI50 (UACC-257): > 100 µM (inactive) | GI50 (IGROV-1): > 100 µM (inactive) | GI50 (SF-539): > 100 µM (inactive) | GI50 (SNB-19): > 100 µM (inactive) | GI50 (UO-31): > 100 µM (inactive) | GI50 (HCC 2998): > 100 µM (inactive) | GI50 (MOLT-4): > 100 µM (inactive) | GI50 (NCI-H23): > 100 µM (inactive) | GI50 (NCI/ADR-RES): > 100 µM (inactive) | GI50 (SF-295): > 100 µM (inactive) | GI50 (HCT-116): > 100 µM (inactive) | GI50 (NCI-H522): > 100 µM (inactive) | GI50 (SK-MEL-5): > 100 µM (inactive) | GI50 (HT-29): > 100 µM (inactive) | GI50 (COLO 205): > 100 µM (inactive) | GI50 (HL-60): > 100 µM (inactive) | GI50 (HOP-92): 17 µM (inactive) | GI50 (U-251): > 100 µM (inactive) | GI50 (MDA-N): > 100 µM (inactive) | GI50 (OVCAR-3): > 100 µM (inactive) | GI50 (HCT-15): > 100 µM | GI50 (NCI-H460): > 100 µM (inactive) | GI50 (NCI-H226): > 100 µM (inactive) | GI50 (A549): > 100 µM (inactive) | GI50 (Hs-578T): > 100 µM (inactive) | GI50 (SW-620): > 100 µM (inactive) | GI50 (BT-549): > 100 µM (inactive) | GI50 (OVCAR-5): > 100 µM (inactive) | GI50 (SF-268): > 100 µM (inactive) | GI50 (K562): > 100 µM (inactive) | GI50 (T47D): > 100 µM (inactive) | GI50 (786-0): > 100 µM (inactive) | GI50 (OVCAR-8): > 100 µM (inactive) | GI50 (SK-MEL-28): > 100 µM (inactive) | GI50 (SK-OV-3): > 100 µM (inactive) | GI50 (OVCAR-4): > 100 µM (inactive) | GI50 (DU-145): > 100 µM (inactive) | GI50 (CAKI-1): > 100 µM (inactive) | GI50 (TK-10): > 100 µM (inactive) | GI50 (RXF 393): > 100 µM (inactive) | GI50 (UACC-62): > 100 µM (inactive) | GI50 (SK-MEL-2): > 100 µM (inactive) | GI50 (EKVX): > 100 µM (inactive) | GI50 (MCF7): > 100 µM (inactive) | GI50 (KM12): > 100 µM (inactive) | GI50 (A498): > 100 µM (inactive) | GI50 (SN12C): > 100 µM (inactive) | GI50 (MDA-MB-435): > 100 µM (inactive) | GI50 (MDA-MB-231): > 100 µM (inactive) | GI50 (Malme-3M): > 100 µM (inactive) | GI50 (ACHN): > 100 µM (inactive) | GI50 (PC-3): > 100 µM (inactive) | GI50 (M14): > 100 µM (inactive)

O=c1c2ccccc2c2ccccc2c(=O)n1-c1cc2c3ccccc3ccc2c2ccccc12
GI50 (LOX IMVI): > 100 µM (inactive) | GI50 (UACC-257): > 100 µM (inactive) | GI50 (IGROV-1): > 100 µM (inactive) | GI50 (SF-539): > 100 µM (inactive) | GI50 (SNB-19): > 100 µM (inactive) | GI50 (UO-31): > 100 µM (inactive) | GI50 (HCC 2998): 22.3 µM (inactive) | GI50 (NCI-H23): > 100 µM (inactive) | GI50 (NCI/ADR-RES): > 100 µM (inactive) | GI50 (SF-295): > 100 µM (inactive) | GI50 (HCT-116): > 100 µM (inactive) | GI50 (NCI-H522): > 100 µM (inactive) | GI50 (SNB-75): > 100 µM (inactive) | GI50 (SK-MEL-5): > 100 µM (inactive) | GI50 (HT-29): > 100 µM (inactive) | GI50 (COLO 205): > 100 µM (inactive) | GI50 (HOP-92): > 100 µM (inactive) | GI50 (U-251): > 100 µM (inactive) | GI50 (MDA-N): > 100 µM (inactive) | GI50 (OVCAR-3): > 100 µM (inactive) | GI50 (HCT-15): > 100 µM | GI50 (NCI-H460): > 100 µM (inactive) | GI50 (NCI-H226): > 100 µM (inactive) | GI50 (A549): > 100 µM (inactive) | GI50 (Hs-578T): > 100 µM (inactive) | GI50 (SW-620): > 100 µM (inactive) | GI50 (BT-549): > 100 µM (inactive) | GI50 (HOP-62): > 100 µM (inactive) | GI50 (OVCAR-5): > 100 µM (inactive) | GI50 (SF-268): > 100 µM (inactive) | GI50 (T47D): > 100 µM (inactive) | GI50 (786-0): > 100 µM (inactive) | GI50 (OVCAR-8): > 100 µM (inactive) | GI50 (SK-MEL-28): > 100 µM (inactive) | GI50 (SK-OV-3): > 100 µM (inactive) | GI50 (OVCAR-4): > 100 µM (inactive) | GI50 (DU-145): > 100 µM (inactive) | GI50 (CAKI-1): > 100 µM (inactive) | GI50 (RPMI-8226): 60.3 µM (inactive) | GI50 (TK-10): > 100 µM (inactive) | GI50 (RXF 393): > 100 µM (inactive) | GI50 (UACC-62): > 100 µM (inactive) | GI50 (SK-MEL-2): > 100 µM (inactive) | GI50 (EKVX): > 100 µM (inactive) | GI50 (MCF7): 91.8 µM (inactive) | GI50 (KM12): > 100 µM (inactive) | GI50 (A498): > 100 µM (inactive) | GI50 (SN12C): 84.5 µM (inactive) | GI50 (MDA-MB-435): > 100 µM (inactive) | GI50 (MDA-MB-231): > 100 µM (inactive) | GI50 (Malme-3M): > 100 µM (inactive) | GI50 (ACHN): > 100 µM (inactive) | GI50 (PC-3): > 100 µM (inactive) | GI50 (M14): > 100 µM (inactive)
